Data: patent US4408054A, “Oximes of 4-benzoyl-piperidines” (Hoechst-Roussel Pharmaceuticals Inc., priority 1982, dated 1983)
Read-outs that look alike come from different tables or passages of the source.

Test system: mice
Experiment: phenyl-p-quinone writhing assay in mice (analgesia)
Format: in vivo
Settings: Mus musculus, sc, read-out: ED50 (subcutaneous dose effecting an approximately 50% inhibition of writhing)
Description: The 3-(4-piperidyl)-1,2-benzisoxazoles of the present invention are useful as analgetics due to their ability to alleviate pain in mammals. […] Exptl. Biol Med., 95 729 (1957)]. Thus, for instance, the subcutaneous dose effecting an approximately 50% inhibition of writhing (ED50) in mice produced in this assay is as follows: […]

[1] = mice, subcutaneous, phenyl-p-quinone writhing

| SMILES | ED50 [mg/kg] | ED50 [1] [mg/kg] |
| --- | --- | --- |
| CN1CCC(c2noc3ccccc23)CC1.Cl [3-(1-Methyl-4-piperidyl)-1,2-benzisoxazole hydrochloride] | 0.415 | – |
| CC(C)=CCN1CCC2(C)c3cc(O)ccc3CC1C2C (centres unmarked) [pentazocine, reference compound] | 1.3 | – |
| Cl.c1ccc(CCN2CCC(c3noc4ccccc34)CC2)cc1 [3-[1-(β-Phenylethyl)-4-piperidyl]-1,2-benzisoxazole hydrochloride] | – | 0.386 |
| C=CCN1CCC(c2noc3cc(F)ccc23)CC1.Cl [3-(1-Allyl-4-piperidyl)-6-fluoro-1,2-benzisoxazole hydrochloride] | – | 0.455 |
| Cc1ccc2onc(C3CCN(C)CC3)c2c1.O=C(O)/C=C/C(=O)O [3-(1-Methyl-4-piperidyl)-5-methyl-1,2-benzisoxazole fumarate] | 0.566 | – |
| CN(C)CCCN1CCC(c2noc3ccccc23)CC1.O=C(O)/C=C/C(=O)O.O=C(O)/C=C/C(=O)O [3-[1-(3-Dimethylaminopropyl)-4-piperidyl]-1,2-benzisoxazole difumarate] | – | 7.4 |
| CCC(=O)O[C@](Cc1ccccc1)(c1ccccc1)[C@H](C)CN(C)C [propoxyphene, reference compound] | 3.9 | – |
| Cl.c1ccc2c(C3CCNCC3)noc2c1 [3-(4-Piperidyl)-1,2-benzisoxazole hydrochloride] | 0.517 | – |
| Cl.Clc1ccc2c(C3CCNCC3)noc2c1 [3-(4-Piperidyl)-6-chloro-1,2-benzisoxazole hydrochloride] | 5.6 | – |
| C=CCN1CCC(c2noc3ccccc23)CC1.Cl [3-(1-Allyl-4-piperidyl)-1,2-benzisoxazole hydrochloride] | – | 1.06 |
| Cl.Fc1ccc2c(C3CCNCC3)noc2c1 [3-(4-Piperidyl)-6-fluoro-1,2-benzisoxazole hydrochloride] | 1.79 | – |
